The source of these data is ChEMBL document CHEMBL1121443, “Role of iodine in thyroid hormones: molecular conformation of a halogen-free hormone analogue” (1980).

Assay [1] is described as follows: In vitro percentage thymocyte activity of compound was determined in rat. In kind it is functional. Details: concentration or dose not given beside the values.
Assay [2] is described as follows: In vivo percentage antigoiter activity of compound was determined. In kind it is functional, Rattus norvegicus. On the set-up: concentration or dose not given beside the values.
A further assay is filed under the species Rattus norvegicus. Put plainly: In vitro binding affinity of compound to the rat Hepatic nuclear protein receptors was determined.
The target in assay [3] is T1, Thyroxine-binding globulin (Homo sapiens) (UniProt P05543).
T1 sequence (whole entry): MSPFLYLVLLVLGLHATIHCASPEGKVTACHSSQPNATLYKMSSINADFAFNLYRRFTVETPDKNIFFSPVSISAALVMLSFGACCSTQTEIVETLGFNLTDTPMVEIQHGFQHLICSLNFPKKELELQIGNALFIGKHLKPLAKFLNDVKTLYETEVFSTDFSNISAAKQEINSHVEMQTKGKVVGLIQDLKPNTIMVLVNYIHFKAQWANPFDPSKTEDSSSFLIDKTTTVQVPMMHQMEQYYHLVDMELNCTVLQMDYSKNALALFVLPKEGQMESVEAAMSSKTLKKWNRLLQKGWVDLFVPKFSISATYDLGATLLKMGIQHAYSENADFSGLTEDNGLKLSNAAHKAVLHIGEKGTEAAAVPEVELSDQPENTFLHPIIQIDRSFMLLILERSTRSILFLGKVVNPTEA
The experiment in a line: Percentage thyroxine-binding globulin (TBG) binding activity of compound was determined in human serum. In kind it is cell-free.

The target of assay [4] is T1, Thyroxine-binding globulin (Homo sapiens). Put plainly: Percentage thyroxine-binding globulin binding activity of compound was determined in human serum. The format is cell-free.

Molecules are shown by their SMILES.

Take `Cc1cc(CC(N)C(=O)O)cc(C)c1Oc1ccc(O)c(C(C)C)c1` (centres undefined): the Activity in assay [1] came out at 48%; in assay [2], 3.6%; in the assay filed under Rattus norvegicus it was 0.7%; in assay [3] it was 0.05%.

On to `Cc1cc(Oc2c(C)cc(CC(N)C(=O)O)cc2C)ccc1O` (centres undefined), for which the Activity was 23% in assay [1], 0.36% in assay [2], 0.1% in the assay listed under Rattus norvegicus and 0% in assay [3].

As for `N[C@@H](Cc1cc(I)c(Oc2ccc(O)c(I)c2)c(I)c1)C(=O)O` [LIOTHYRONINE], the Activity in assay [1] worked out at 100%; in assay [2] it was 100%; in assay [3], 9%.

With `N[C@@H](Cc1cc(I)c(Oc2cc(I)c(O)c(I)c2)c(I)c1)C(=O)O` [LEVOTHYROXINE], the Activity in assay [1] stood at 30%; in assay [2] it was 18%; in the assay filed under Rattus norvegicus, 12.5%; in assay [4], 100%.

As to `Cc1cc(Oc2c(C)cc(CC(N)C(=O)O)cc2C)cc(C)c1O` (centres undefined), the Activity in assay [1] stood at 23%; in assay [2], 0.54%; in the assay listed under Rattus norvegicus, 0.1%; in assay [3], 0%.
